BindingDB's records for doi:10.7270/Q2S46Q8P (The Scripps Research Institute Molecular Screening Center, 2007)

Molecular target: T1, 5-hydroxytryptamine receptor 1A (Homo sapiens, UniProt P08908)
T1 sequence (P08908 whole entry): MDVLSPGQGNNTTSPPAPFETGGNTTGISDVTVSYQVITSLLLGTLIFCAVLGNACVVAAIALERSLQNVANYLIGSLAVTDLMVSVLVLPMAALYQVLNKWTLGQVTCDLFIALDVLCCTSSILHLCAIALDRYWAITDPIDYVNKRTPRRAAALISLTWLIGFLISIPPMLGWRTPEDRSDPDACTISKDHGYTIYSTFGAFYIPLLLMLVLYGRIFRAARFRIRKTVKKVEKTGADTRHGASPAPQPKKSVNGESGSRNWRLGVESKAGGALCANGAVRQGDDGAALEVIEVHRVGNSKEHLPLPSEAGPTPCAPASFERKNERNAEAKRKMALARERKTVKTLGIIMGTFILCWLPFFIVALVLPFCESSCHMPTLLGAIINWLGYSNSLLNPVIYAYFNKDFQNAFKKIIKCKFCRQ
Assay: serotonin 1A receptor activation, dose response (AID 718)
Conditions: inactive by the depositor's call; pH 7.4; 23 °C

Structure (SMILES) | IC50 [µM]
CCCOCCOC(=O)c1[nH]c2c(c1C)C(=O)CC(c1cc(OC)ccc1OC)C2 (configuration not stated) | 40
CC(C)=CCC(C)(C)CNC(=O)NC1CCCCC1 | 40
CCCOc1ccc2nc(NC(=O)OC)[nH]c2c1 [SMR000058208] | 40
CN(C)c1nc(OCCNC(=O)COc2ccc(Cl)cc2Cl)nc(N2CCCCC2)n1 [SMR000072558] | 40
COC(=O)Nc1nc2ccc(Sc3ccccc3)cc2[nH]1 [FENBENDAZOLE] | 40
COc1cc2c(cc1OC)-c1cc(N3CCCc4ccccc43)nc(=O)n1CC2 [2-(3,4-dihydro-2H-quinolin-1-yl)-9,10-dimethoxy-6,7-dihydropyrimido[6,1-a]isoquinolin-4-one] | 25
CCOc1ccc(C2=Nn3c(nnc3-c3ccccc3OC)SC2)cc1 [6-(4-ethoxyphenyl)-3-(2-methoxyphenyl)-7H-[1,2,4]triazolo[3,4-b][1,3,4]thiadiazine] | 25

Second part, the compound after the results:

IC50 [µM] | Structure (SMILES)
40 | COCCOC(=O)c1[nH]c2c(c1C)C(=O)CC(c1ccccc1)C2 (configuration not stated) [SMR000025505]
10.9 | N#C/C(=C/c1ccc(N2CCCCCC2)o1)c1ccc(F)cc1 [MLS000051438]
40 | CCn1c(=O)c(C(=O)Nc2nc3ccccc3[nH]2)c(O)c2ccccc21 [MLS000027148]
40 | COc1ccc(C2N(c3ccc(F)cc3)C(=O)C3CCCN32)cc1 (configuration not stated) [SMR000094164]
22.2 | CCOc1cccc(-c2nnc3n2N=C(c2cc(OC)ccc2OC)CS3)c1 [MLS000081451]

Same assay, conditions: pH 7.4; 23 °C

Structure (SMILES) | IC50 [µM]
COc1cccc(N2CCN(c3ncnc4c3[nH]c3ccc(F)cc34)CC2C)c1 (configuration not stated) [8-fluoranyl-4-[4-(3-methoxyphenyl)-3-methyl-piperazin-1-yl]-5H-pyrimido[5,4-b]indole] | 0.866
COc1ccc(-n2nnnc2S(=O)(=O)CC(=O)N2CCCCC2)cc1 [2-[1-(4-methoxyphenyl)tetrazol-5-yl]sulfonyl-1-piperidin-1-ylethanone] | 2.6
O=C(Nc1ccc(-c2nc3ncccc3o2)cc1)c1ccc(Br)o1 | 8.32
COc1ccc(-c2cc(C(F)(F)F)nc(S(C)(=O)=O)n2)cc1OC [4-(3,4-dimethoxyphenyl)-2-methylsulfonyl-6-(trifluoromethyl)pyrimidine] | 3.59
Cn1c(-c2c(N)n(C3CCCC3)c3nc4ccccc4nc23)nc2ccccc21 [1-cyclopentyl-3-(1-methyl-2-benzimidazolyl)-2-pyrrolo[3,2-b]quinoxalinamine] | 2.38
CCC(NC(=O)Nc1nnc(C(F)(F)F)s1)(C(F)(F)F)C(F)(F)F | 6.92
Cc1ccc(-n2nc3c([n+]2[O-])CCc2c-3n[o+]n2[O-])cc1 [7-(4-methylphenyl)-3,6-dioxido-4,5-dihydrotriazolo[4,5-e][2,1,3]benzoxadiazole-3,6-diium] | 3.26
O=C(Nc1ccc(N2CCOCC2)cc1)Nc1ccc2nc(-c3ccco3)c(-c3ccco3)nc2c1 [N-(2,3-di-2-furyl-6-quinoxalinyl)-N'-[4-(4-morpholinyl)phenyl]urea] | 2.29
N#CCCS(=O)(=O)c1nnnn1-c1ccccc1 [3-(1-phenyltetrazol-5-yl)sulfonylpropanenitrile] | 2.9
CC(=O)Nc1cc(OC(C)=O)c2nonc2c1OC(C)=O [Acetic acid 7-acetoxy-5-acetylamino-benzo[1,2,5]oxadiazol-4-yl ester] | 1.78
CCn1nc(-c2cccs2)nc2c(=O)n(C)c(=O)nc1-2 [1-ethyl-6-methyl-3-thiophen-2-yl-pyrimido[5,4-e][1,2,4]triazine-5,7-dione] | 0.421
O=S1(=O)C=C(Sc2nnc(-c3ccccc3)o2)c2ccccc21 | 2.48
COC(=O)/C(=C1/Oc2cc(C)oc(=O)c2S1)C(F)(F)F [methyl (2E)-3,3,3-tris(fluoranyl)-2-(6-methyl-4-oxidanylidene-[1,3]oxathiolo[4,5-c]pyran-2-ylidene)propanoate] | 1.24
COc1ccccc1-c1nnc2n1N=C(c1ccc(O)c(O)c1)CS2 [(4E)-4-[3-(2-methoxyphenyl)-5H-[1,2,4]triazolo[3,4-b][1,3,4]thiadiazin-6-ylidene]-2-oxidanyl-cyclohexa-2,5-dien-1-one] | 40
Cc1ccc(S(=O)(=O)Nc2cccc3ncccc23)s1 [5-methyl-N-quinolin-5-ylthiophene-2-sulfonamide] | 1.1
CCN(CC)c1ccc2c(Cl)c(Br)c(=O)oc2c1 | 2.3
CCn1nc(-c2ccccc2)nc2c(=O)n(C)c(=O)nc1-2 [1-Ethyl-6-methyl-3-phenyl-1H-pyrimido[5,4-e][1,2,4]triazine-5,7-dione] | 0.581
OCC12C=CC(O1)c1c2c(O)n(-c2ccc(-c3ccccc3)cc2)c1O (configuration not stated) | 11.6
COc1cccc(N2CCN(c3ncnc4c3[nH]c3ccccc34)CC2C)c1 (configuration not stated) [4-[4-(3-methoxyphenyl)-3-methyl-1-piperazinyl]-5H-pyrimido[5,4-b]indole] | 3.31

Continued, values first:

IC50 [µM] | Structure (SMILES)
2.28 | CS(=O)(=O)c1nc(-c2ccccc2)cc(C(F)(F)F)n1 [MLS000044644]
40 | CCCc1nnc2n1N=C(c1ccc(OC)c(OC)c1)CS2 [SMR000057783]
2.44 | CS(=O)(=O)c1nc(-c2cccs2)cc(C(F)(F)F)n1 [MLS000044645]
3.3 | CS(=O)(=O)c1nc(-c2ccco2)cc(C(F)(F)F)n1 [MLS000044646]
4.85 | Clc1ccc(-n2nnnc2Sc2ncnc3sccc23)cc1 [SMR000066808]
7.33 | CC(=O)Oc1ccc(-n2c(O)c3c(c2O)C2(C)C=CC3(C)O2)cc1 [MLS000107813]
1.88 | CSc1ccccc1NC=C1C(=O)CC(C)(C)CC1=O [SMR000111352]
4.78 | COc1cccc(N2CCN(c3ncnc4c3cnn4-c3ccc(C)cc3C)CC2)c1 [SMR000017007]
0.823 | COc1cc(NS(=O)(=O)c2ccc(C)cc2)c2ncccc2c1 [SMR000071147]
40 | COc1cc2c(cc1OC)C1=C(C#N)CC=C(NS(=O)(=O)c3ccccc3)N1CC2 [SMR000092093]
40 | COc1ccc(-n2c(O)cc(NCc3ccncc3)c2O)cc1 [MLS000099014]
